Measurements taken from PMC4255142 (Bioorganic & medicinal chemistry letters, 2014).

What was measured:
[1] = biological target: T1, holocarboxylase synthetase (HLCS) (Homo sapiens, UniProt P50747); assay: Competition studies with biotin; assay type: biochemical; details: for apparent Vmax with inhibitor: 250 μM inhibitor, biotin varied 0-320 μM, n=4; for Mechanism of HLCS inhibition: competition studies with biotin
T1 sequence (P50747 1-726): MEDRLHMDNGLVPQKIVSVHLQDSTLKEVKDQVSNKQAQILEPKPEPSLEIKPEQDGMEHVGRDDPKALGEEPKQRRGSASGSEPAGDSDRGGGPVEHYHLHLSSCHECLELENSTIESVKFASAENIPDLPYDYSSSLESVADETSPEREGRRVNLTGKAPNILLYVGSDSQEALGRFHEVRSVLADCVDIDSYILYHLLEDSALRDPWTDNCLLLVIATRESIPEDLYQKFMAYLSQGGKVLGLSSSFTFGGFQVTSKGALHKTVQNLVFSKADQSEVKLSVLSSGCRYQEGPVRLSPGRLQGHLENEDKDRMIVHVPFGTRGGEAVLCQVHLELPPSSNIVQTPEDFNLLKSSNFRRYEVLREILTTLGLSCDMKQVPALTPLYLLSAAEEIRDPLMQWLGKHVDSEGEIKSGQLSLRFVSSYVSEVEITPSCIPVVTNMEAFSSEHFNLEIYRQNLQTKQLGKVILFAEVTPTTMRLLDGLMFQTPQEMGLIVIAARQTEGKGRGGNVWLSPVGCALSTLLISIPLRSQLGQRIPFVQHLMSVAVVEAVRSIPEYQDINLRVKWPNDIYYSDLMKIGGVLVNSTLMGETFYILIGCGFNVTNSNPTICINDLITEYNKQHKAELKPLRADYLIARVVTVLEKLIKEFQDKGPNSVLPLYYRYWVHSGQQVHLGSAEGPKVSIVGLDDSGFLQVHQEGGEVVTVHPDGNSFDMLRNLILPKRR

[2] = biological target: T1, holocarboxylase synthetase (HLCS); assay: Inhibition of HLCS-catalysed biotinylation of recombinant p67; assay type: biochemical; details: data not shown

Row | Mechanism of HLCS inhibition [1] | Mechanism of HLCS inhibition ([1]; listed as β-KetoP) | Mechanism of HLCS inhibition ([1]; listed as Biotinol-AMP) | Mechanism of HLCS inhibition ([1]; listed as β-HydroxyP) | Compound | apparent Vmax with inhibitor [1] | HLCS inhibition (negative control, in words) [2]
1 | competitive | competitive inhibitor | – | – | N.Nc1ncnc2c1ncn2[C@@H]1O[C@H](COP(=O)(O)CC(=O)CCCC[C@@H]2SC[C@@H]3NC(=O)N[C@@H]32)[C@@H](O)[C@H]1O [β-ketoP, biotin β-ketophosphonate-5′-AMP] | 31.5±1.6 pmol biotinylated p67/(nmol HLCS x s) | –
2 | mixed | – | mixed inhibitor | – | Nc1ncnc2c1ncn2[C@@H]1O[C@H](COP(=O)(O)OCCCCC[C@@H]2SC[C@@H]3NC(=O)N[C@@H]32)[C@@H](O)[C@H]1O [biotinol-5'-AMP, biotinol-5′-AMP, reference compound] | – | –
3 | competitive | – | – | competitive inhibitor | N.Nc1ncnc2c1ncn2[C@@H]1O[C@H](COP(=O)(O)CC(O)CCCC[C@@H]2SC[C@@H]3NC(=O)N[C@@H]32)[C@@H](O)[C@H]1O (stereo partly drawn) [β-hydroxyP, biotin β-hydroxyphosphonate-5′-AMP] | 20.6±1.8 pmol biotinylated p67/(nmol HLCS x s) | –
4 | – | – | – | – | COP(=O)(O)CC(=O)CCCC[C@@H]1SC[C@@H]2NC(=O)N[C@@H]21 [compound 3] | – | did not inhibit HLCS
